Results taken from US12605424B2 (priority 2019, dated 2026).
Like-named read-outs stand apart in the source and are kept apart here.

How the values were obtained:
[1] = system: Br2 (600/30) exposed neonatal mice; details: mouse, in vivo
[2] = system: human bronchial epithelial cells (HBECs); type: cell-based
[3] = system: C57BL/6 mice exposed to Br2 gas; details: mouse, in vivo
[4] = system: Mice having sickle cell disease exposed to chlorine; details: mouse, in vivo
[5] = mouse, in vivo
[6] = mouse, in vivo; remark: listed apart in the source
[7] = system: Neonatal mice exposed to Cl2; details: mouse, in vivo
[8] = system: C57BL/6 mice exposed to COCl2; details: mouse, in vivo
[9] = system: C57BL/6 mice exposed to Cl2, Br2 or COCl2; details: mouse, in vivo
[10] = mouse, in vivo; cited from earlier work
[11] = system: P aeruginosa; type: cell-based, mouse
[12] = system: C57bl/6 mice exposed to Br2; details: mouse, in vivo
[13] = system: P. aeruginosa (strain PAK); details: mouse, in vivo
[14] = molecular target: ENaC (Homo sapiens, UniProt P37088+P51168+P51170); type: cell-based
ENaC, sequence (P51168 whole entry): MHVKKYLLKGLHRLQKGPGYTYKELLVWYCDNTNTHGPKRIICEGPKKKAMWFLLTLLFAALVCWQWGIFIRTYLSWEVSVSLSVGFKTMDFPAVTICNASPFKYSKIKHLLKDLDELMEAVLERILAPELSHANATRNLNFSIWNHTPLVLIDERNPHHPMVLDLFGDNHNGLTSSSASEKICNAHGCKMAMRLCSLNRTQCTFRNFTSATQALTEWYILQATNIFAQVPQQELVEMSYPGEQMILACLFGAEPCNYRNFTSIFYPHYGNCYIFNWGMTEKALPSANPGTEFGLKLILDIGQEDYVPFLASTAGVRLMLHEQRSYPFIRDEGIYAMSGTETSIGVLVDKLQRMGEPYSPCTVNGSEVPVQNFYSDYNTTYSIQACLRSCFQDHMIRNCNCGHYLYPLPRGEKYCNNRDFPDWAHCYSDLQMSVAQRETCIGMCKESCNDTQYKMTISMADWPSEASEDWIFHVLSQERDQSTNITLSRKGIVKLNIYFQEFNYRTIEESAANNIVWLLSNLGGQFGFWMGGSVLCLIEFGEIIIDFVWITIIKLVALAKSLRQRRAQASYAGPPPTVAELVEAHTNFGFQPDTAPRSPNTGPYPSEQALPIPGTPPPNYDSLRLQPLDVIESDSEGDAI
ENaC, sequence (P51170 whole entry): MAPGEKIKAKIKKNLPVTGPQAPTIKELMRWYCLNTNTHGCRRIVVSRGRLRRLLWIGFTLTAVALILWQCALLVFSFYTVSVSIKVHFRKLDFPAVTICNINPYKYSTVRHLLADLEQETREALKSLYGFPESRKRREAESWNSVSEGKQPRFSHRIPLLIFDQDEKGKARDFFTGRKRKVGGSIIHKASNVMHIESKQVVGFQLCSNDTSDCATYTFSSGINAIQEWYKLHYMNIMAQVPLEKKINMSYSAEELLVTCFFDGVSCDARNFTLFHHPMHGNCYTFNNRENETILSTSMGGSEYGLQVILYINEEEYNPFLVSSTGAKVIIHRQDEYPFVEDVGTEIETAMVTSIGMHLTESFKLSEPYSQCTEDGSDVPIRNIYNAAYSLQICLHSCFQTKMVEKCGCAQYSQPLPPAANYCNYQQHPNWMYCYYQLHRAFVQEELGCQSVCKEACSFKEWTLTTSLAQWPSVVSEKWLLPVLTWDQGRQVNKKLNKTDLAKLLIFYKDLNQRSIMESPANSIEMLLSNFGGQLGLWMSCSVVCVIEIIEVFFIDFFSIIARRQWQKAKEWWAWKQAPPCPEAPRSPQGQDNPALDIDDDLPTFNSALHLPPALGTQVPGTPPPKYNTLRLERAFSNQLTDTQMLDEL
ENaC, sequence (P37088 whole entry): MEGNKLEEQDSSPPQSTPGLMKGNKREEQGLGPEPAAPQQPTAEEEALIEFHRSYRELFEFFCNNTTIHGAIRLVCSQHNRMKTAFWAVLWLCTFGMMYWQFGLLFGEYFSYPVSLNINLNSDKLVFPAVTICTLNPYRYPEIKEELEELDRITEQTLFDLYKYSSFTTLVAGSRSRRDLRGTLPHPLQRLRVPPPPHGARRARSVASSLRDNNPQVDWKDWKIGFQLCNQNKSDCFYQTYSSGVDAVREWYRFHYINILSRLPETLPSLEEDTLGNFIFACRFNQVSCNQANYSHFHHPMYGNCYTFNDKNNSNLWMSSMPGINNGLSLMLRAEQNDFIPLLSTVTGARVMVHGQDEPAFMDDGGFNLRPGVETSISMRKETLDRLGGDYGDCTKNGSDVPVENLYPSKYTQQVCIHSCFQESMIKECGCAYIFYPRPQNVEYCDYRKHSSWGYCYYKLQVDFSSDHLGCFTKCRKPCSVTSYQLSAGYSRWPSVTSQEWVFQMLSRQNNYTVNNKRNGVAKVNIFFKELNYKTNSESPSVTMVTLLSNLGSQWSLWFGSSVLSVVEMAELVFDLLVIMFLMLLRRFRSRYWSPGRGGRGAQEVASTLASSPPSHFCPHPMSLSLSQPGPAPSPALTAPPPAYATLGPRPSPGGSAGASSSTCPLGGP

[15] = molecular target: α, β, γ-hENaC (Homo sapiens, UniProt P37088+P51168+P51170); type: cell-based
α, β, γ-hENaC, sequence (P51168 whole entry): as the sequence (P51168 whole entry) above
α, β, γ-hENaC, sequence (P51170 whole entry): as the sequence (P51170 whole entry) above
α, β, γ-hENaC, sequence (P37088 whole entry): as the sequence (P37088 whole entry) above

[16] = molecular target: CFTR (Homo sapiens, UniProt P13569); type: cell-based
[17] = system: Na^+/K^+-ATPase; type: cell-based, human
[18] = system: 16 pS non-selective cation channel; type: cell-based, mouse; details: read-out: IC50, decrease of open probability of 16 pS channel
[19] = molecular target: 4 pS amiloride-sensitive highly Na^+ selective channel (ENaC) (Mus musculus, UniProt Q61180+Q9WU38+Q9WU39); type: cell-based
4 pS amiloride-sensitive highly Na^+ selective channel (ENaC), sequence (Q9WU38 whole entry): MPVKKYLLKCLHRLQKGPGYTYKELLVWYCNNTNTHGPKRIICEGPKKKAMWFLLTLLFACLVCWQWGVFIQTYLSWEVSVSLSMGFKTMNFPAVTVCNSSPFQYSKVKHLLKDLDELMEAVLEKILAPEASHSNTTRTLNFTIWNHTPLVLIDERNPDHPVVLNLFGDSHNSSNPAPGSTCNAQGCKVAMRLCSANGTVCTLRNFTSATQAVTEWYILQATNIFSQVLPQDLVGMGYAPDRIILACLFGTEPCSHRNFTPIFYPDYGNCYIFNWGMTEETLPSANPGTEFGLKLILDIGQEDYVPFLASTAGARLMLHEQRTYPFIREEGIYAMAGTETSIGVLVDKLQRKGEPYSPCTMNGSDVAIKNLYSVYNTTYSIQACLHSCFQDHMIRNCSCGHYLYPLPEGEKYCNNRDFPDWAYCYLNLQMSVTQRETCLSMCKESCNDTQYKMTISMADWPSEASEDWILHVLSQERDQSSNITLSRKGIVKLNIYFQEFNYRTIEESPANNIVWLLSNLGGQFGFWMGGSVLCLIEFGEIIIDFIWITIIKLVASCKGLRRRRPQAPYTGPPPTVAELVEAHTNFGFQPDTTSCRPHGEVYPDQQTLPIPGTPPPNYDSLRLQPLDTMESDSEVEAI
4 pS amiloride-sensitive highly Na^+ selective channel (ENaC), sequence (Q9WU39 whole entry): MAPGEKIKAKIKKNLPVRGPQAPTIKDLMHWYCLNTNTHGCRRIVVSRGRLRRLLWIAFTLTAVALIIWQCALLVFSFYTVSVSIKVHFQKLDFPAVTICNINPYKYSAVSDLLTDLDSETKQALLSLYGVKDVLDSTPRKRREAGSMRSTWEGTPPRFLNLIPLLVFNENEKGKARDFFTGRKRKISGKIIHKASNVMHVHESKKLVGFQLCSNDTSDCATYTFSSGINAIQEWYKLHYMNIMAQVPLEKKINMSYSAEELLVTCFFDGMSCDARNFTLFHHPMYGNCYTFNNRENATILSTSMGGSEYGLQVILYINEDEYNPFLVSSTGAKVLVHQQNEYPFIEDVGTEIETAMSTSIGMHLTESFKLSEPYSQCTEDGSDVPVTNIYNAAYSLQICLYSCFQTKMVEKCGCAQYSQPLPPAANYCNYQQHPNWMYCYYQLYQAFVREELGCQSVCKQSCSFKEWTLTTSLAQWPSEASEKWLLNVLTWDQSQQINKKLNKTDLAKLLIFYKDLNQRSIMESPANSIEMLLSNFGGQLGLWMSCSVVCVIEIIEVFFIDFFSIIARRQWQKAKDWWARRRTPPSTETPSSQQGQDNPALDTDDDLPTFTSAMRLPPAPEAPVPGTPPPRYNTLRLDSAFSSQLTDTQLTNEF
4 pS amiloride-sensitive highly Na^+ selective channel (ENaC), sequence (Q61180 whole entry): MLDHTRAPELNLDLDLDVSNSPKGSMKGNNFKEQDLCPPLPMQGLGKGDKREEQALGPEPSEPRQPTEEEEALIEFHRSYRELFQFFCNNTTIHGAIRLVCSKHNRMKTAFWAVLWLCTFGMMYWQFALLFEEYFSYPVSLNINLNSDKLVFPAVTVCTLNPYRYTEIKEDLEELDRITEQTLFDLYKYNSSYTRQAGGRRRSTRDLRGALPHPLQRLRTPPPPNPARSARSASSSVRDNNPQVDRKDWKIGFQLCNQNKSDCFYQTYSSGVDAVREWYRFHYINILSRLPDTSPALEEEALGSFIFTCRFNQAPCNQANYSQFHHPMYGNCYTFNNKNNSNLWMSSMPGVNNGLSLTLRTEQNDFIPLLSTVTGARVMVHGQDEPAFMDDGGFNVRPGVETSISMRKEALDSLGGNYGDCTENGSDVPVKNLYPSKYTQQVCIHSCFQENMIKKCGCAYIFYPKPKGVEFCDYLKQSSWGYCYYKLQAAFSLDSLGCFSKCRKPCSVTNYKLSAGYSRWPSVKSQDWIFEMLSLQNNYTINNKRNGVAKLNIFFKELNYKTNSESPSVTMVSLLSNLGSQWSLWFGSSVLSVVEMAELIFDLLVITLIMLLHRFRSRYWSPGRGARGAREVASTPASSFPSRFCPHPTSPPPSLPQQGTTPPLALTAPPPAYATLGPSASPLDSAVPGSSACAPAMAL

## OCC1OC([S][Au])C(O)C(O)C1O [ATG, gold(1+);(3R,4S,5S,6R)-3,4,5-trihydroxy-6-(hydroxymethyl) oxane-2-thiolate, reference compound]
[1]
  mortality: not effective
  systemic hypoxia: not effective

## BrBr [Br2, bromine]
[2]
  ER stress marker ATF4: increased
  ER stress marker CHOP: remained unaltered

## O=C(/C=C/c1ccccc1)NC(NC(=S)Nc1cccc2cccnc12)C(Cl)(Cl)Cl (stereo not drawn) [salubrinal, (2E)-3-Phenyl-N-[2,2,2-trichloro-1-[[(8-quinolinylamino)thioxomethyl]amino]ethyl]2-propenamide, reference compound]
[3]
  BALF elastase activity: attenuated
  BALF protein levels: ameliorated
  BALF total cell count: ameliorated
  Masson's trichrome staining of lungs (collagen, fibrotic changes): decreased collagen levels and lung fibrotic changes
  alveolar mean linear intercept (Lm): attenuated
  lung CHOP levels (immunoblot): decrease
  lung hydroxyproline levels: decreased collagen levels
  lung phosphorylated eIF2α (immunoblot): significant increase
  lung volumes (PV curve), lung compliance and inspiratory capacity: prevented Br2-induced increase
  plasma elastase levels: attenuated

## Hemopexin [Hpx]
[1]
  mortality: not effective
  systemic hypoxia: not effective
[4]
  probability of survival: higher probability of survival
[3]; ip
  ATF4 and CHOP, immunohistochemical staining of lung sections: attenuated ATF4 and CHOP levels around airways and completely abrogated the ER stress markers in the lung parenchyma
  BALF elastase activity: lower
  BALF protein levels: significantly reduced
  BALF total cell count: significantly reduced
  PV curve, lung compliance and inspiratory capacity: prevented the shifting of the PV curve
  alveolar Lm: reduced
  lung ATF4 (immunoblot): low levels
  lung CHOP (immunoblot): low levels
  lung collagen levels on Masson's trichrome staining: significantly reduced
  lung hydroxyproline levels: significantly reduced
  overall mortality (Kaplan-Meier): reduced overall mortality
  plasma elastase levels: lower
  plasma heme: reduced
[5]
  plasma [IgM] relative to control: ≤ 8%
[6]
  time plasma level is maintained / remains stable: at least 24 h
[6]; im
  plasma bioavailability (plasma concentration): about 25 μg/ml
[7]
  apical cytoplasm of the bronchial epithelium (histology): exhibited some improvement
  cellularity of alveolar septae (histology): exhibited some recovery
  mean linear intercept (MLI): decreased MLI
  survival: improved survival
[8]
  BALF protein levels: reduced BALF protein levels
[9]
  BALF heme: attenuated
  BALF inflammatory cell count: attenuated
  BALF protein levels: reduced
  BALF proteins: attenuated
  mortality (Kaplan-Meier): reduced mortality
[10]
  serum half-life: approximately 7 days
[11]
  bactericidal function of neutrophils (bacterial colonies on agar): improved neutrophil function
[12]
  survival (Kaplan Meier): improved survival
[13]
  bacterial colonies from lung homogenates on agar plates: grew fewer bacterial colonies
  survival: improved survival

## ferric chloride heme
[2]
  ER stress marker ATF4: increased
  ER stress marker CHOP: increased
[14]
  ENaC activity: totally inhibited
  transepithelial resistance: above 1500 Ohms*cm^2
[14]; read-out: EC50, inhibition of trans-epithelial Na^+ transport across human airway cells
  EC50: 500 nM
[14]; read-out: IC50, inhibition of amiloride-sensitive ENaC short circuit current
  IC50: ~500 nM
[15]
  Na^+ current (whole cell): inhibited
[15]; 1 µM
  inhibition of whole-cell Na^+ current: 80%
[16]
  forskolin-stimulated, GlyH-101-inhibited CFTR currents: inhibited amiloride-sensitive, ENaC, but not forskolin-stimulated, GlyH-101-inhibited, CFTR, currents
[17]
  Na^+/K^+-ATPase function (ouabain-sensitive current): did not impair
[18]
  IC50: 125 nM
[19]; read-out: EC50, inhibition of ENaC and cation Na^+ channels in mouse alveolar cells
  EC50: 125 nM
[19]; read-out: IC50, decrease of open probability of 4 pS channel
  IC50: 125 nM

## heme-Hpx complex: complex of heme with hemopexin
[10]
  serum half-life: approximately 7 h

## nitrite [reference compound]
[12]
  survival (Kaplan Meier): improved survival early
